According to ChEMBL document CHEMBL5465560, “Selectivity Literature for EUbOPEN Chemogenomic Library” (2024):
Each block holds one compound with its values, some of them ahead of it.

Tests used:
[1] = target: T1, Serine/threonine-protein kinase Sgk3 (Homo sapiens) (UniProt Q96BR1); conditions: at 10 µM
T1 sequence (whole entry): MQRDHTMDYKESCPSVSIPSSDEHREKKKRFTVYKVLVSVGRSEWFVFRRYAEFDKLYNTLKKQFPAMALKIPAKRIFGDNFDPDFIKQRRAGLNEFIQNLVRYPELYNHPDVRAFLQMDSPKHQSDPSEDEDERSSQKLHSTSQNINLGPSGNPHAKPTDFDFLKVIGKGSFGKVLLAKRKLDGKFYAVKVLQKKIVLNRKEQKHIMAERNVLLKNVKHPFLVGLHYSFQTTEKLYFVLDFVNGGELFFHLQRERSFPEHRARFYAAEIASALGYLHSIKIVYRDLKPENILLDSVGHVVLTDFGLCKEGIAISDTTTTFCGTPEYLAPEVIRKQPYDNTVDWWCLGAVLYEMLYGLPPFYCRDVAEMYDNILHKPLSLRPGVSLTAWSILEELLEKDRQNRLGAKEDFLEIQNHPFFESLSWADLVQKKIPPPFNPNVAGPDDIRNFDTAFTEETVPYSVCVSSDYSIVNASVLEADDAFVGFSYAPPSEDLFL

[2] = target: T2, Aurora kinase A (Homo sapiens) (UniProt O14965); assay: Selectivity interaction (ActivX KiNativ screen (kinase selectivity in THP-1 cell lysates)) EUB0000639a STK6; format: subcellular; conditions: lysate, at 0.2 µM
T2 sequence (whole entry): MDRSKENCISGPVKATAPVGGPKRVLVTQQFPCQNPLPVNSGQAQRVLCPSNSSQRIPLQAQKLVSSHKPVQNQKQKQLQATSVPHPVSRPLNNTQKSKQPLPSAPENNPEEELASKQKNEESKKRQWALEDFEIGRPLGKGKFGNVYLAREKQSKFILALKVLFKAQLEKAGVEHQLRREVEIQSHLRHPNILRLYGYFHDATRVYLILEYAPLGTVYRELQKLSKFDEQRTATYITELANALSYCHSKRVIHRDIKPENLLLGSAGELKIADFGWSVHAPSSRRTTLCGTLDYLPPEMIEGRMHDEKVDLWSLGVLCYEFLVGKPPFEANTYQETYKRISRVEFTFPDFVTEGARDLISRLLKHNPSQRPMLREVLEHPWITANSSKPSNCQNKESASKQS

[3] = target: Ribosomal protein S6 kinase alpha-1 (Homo sapiens, UniProt Q15418); assay: Selectivity interaction (ActivX KiNativ screen (kinase selectivity in THP-1 cell lysates)) EUB0000639a RPS6KA1; format: subcellular; conditions: lysate, at 0.01 µM
Ribosomal protein S6 kinase alpha-1, sequence (Q15418 whole entry): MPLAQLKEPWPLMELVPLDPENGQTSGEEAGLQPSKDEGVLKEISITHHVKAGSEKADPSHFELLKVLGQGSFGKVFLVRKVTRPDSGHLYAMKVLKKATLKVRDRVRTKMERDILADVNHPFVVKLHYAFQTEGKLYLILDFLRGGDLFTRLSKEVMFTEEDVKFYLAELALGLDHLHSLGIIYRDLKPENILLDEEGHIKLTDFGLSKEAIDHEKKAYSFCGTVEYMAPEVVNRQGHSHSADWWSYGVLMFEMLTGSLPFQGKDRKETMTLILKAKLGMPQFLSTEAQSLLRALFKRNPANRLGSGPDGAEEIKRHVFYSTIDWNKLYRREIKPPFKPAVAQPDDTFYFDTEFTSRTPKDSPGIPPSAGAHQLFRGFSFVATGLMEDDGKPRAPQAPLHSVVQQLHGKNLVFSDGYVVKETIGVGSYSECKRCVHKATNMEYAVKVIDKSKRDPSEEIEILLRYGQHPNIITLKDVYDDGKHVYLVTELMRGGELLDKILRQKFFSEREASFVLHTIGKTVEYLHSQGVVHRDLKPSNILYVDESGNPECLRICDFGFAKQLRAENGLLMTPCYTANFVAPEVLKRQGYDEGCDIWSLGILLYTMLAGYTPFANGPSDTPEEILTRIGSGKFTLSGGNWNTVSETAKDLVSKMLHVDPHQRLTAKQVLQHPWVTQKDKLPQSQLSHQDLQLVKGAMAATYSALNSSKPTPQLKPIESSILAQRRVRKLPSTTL

[4] = target: Mitogen-activated protein kinase 1 (Homo sapiens, UniProt P28482); assay: Selectivity interaction (Kinase panel (33PanQinase(R) Activity Assay)) EUB0000877a MAPK1
Mitogen-activated protein kinase 1, sequence (P28482 whole entry): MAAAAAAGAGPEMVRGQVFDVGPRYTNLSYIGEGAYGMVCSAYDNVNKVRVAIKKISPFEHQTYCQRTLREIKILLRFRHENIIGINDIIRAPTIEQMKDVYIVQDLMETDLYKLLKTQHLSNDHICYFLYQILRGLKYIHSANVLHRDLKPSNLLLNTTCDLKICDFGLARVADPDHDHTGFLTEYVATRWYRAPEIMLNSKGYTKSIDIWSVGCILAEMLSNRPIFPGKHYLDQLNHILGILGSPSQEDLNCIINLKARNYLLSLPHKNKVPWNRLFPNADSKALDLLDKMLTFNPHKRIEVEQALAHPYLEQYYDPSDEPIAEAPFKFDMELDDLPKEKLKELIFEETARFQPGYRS

[5] = target: Tyrosine-protein kinase ABL1 (Homo sapiens, UniProt P00519); conditions: at 10 µM
Tyrosine-protein kinase ABL1, sequence (P00519 whole entry): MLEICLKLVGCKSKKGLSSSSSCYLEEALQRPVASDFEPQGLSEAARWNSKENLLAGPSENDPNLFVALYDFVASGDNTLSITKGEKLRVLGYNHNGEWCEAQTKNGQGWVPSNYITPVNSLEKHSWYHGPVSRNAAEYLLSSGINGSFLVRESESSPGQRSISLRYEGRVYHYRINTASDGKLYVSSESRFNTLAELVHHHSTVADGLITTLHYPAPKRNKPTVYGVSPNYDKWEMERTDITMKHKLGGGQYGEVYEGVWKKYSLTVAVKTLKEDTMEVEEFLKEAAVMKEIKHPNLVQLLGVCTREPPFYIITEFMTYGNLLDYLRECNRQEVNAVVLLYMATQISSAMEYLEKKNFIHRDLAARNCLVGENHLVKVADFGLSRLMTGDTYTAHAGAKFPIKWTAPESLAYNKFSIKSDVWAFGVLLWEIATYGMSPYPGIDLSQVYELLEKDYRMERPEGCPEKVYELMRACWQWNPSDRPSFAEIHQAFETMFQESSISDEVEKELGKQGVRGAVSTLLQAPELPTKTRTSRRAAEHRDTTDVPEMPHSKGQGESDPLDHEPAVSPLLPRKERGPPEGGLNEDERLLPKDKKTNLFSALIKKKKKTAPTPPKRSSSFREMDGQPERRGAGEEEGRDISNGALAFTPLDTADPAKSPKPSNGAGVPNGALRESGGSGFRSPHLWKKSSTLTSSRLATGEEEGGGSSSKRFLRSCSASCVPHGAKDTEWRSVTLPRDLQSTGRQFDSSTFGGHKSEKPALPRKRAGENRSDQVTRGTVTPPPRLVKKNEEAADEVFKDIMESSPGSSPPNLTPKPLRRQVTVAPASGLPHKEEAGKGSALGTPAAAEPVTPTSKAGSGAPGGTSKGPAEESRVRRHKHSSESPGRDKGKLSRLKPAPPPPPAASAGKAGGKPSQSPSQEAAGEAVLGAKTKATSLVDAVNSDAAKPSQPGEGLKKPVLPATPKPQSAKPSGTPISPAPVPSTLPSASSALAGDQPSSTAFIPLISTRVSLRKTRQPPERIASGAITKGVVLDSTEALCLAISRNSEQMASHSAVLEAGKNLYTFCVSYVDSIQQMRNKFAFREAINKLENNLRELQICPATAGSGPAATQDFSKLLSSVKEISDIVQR

[6] = target: Cyclin-Y/Cyclin-dependent kinase 16 (Homo sapiens) (UniProt Q00536+Q8ND76); assay: Selectivity interaction (ProQinase) EUB0000171b CDK16; format: protein-complex assay
[7] = target: Tyrosine-protein kinase Blk (Homo sapiens) (UniProt P51451); assay: Selectivity interaction (KinomeScan (DiscoverX)) EUB0000092b BLK; conditions: at 10 µM
Tyrosine-protein kinase Blk (Homo sapiens), sequence (P51451 2-505 limits assumed): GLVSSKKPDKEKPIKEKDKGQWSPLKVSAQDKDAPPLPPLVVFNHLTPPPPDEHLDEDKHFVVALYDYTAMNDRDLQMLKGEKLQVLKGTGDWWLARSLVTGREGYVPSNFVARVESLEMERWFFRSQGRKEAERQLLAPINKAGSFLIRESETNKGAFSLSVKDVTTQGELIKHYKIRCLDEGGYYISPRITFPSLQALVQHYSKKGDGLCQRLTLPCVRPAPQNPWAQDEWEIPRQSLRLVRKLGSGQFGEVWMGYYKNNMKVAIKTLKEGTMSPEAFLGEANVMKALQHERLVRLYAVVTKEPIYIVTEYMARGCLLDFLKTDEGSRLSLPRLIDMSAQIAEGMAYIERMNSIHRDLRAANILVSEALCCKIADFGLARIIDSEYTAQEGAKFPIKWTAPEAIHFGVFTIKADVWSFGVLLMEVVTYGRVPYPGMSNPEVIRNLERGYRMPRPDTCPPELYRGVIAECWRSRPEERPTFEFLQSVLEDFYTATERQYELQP

[8] = target: T3, Serine/threonine-protein kinase D3 (Homo sapiens) (UniProt O94806); assay: Selectivity interaction (KinomeScan (DiscoverX)) EUB0000045b PRKD3
T3 sequence (whole entry): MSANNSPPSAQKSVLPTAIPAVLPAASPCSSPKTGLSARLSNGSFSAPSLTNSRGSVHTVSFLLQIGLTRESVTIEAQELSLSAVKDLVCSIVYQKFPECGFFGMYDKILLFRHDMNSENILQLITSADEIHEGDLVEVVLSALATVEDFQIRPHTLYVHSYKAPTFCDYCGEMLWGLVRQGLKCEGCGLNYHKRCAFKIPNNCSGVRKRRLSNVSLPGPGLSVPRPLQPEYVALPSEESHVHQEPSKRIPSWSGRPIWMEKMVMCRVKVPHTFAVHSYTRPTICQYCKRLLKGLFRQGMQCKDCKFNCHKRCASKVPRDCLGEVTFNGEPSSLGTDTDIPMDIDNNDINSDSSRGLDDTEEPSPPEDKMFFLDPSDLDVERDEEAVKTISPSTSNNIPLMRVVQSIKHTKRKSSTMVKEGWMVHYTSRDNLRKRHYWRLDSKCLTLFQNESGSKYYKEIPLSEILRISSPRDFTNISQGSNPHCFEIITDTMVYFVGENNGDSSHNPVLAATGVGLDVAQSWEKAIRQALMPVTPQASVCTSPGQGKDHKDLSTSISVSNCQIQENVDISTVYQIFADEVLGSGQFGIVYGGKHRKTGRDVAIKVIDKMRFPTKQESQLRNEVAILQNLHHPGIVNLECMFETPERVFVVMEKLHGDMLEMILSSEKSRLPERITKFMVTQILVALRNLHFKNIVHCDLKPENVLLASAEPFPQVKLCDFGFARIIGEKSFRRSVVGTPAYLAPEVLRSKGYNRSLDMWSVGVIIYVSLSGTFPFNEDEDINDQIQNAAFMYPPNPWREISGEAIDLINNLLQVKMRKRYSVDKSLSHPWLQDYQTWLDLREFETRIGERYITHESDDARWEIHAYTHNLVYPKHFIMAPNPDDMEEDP

[9] = target: Mitogen-activated protein kinase 8 (Homo sapiens, UniProt P45983); assay: Selectivity interaction (KinomeScan (DiscoverX)) EUB0000618a MAPK8; conditions: at 10 µM
Mitogen-activated protein kinase 8, sequence (P45983 whole entry): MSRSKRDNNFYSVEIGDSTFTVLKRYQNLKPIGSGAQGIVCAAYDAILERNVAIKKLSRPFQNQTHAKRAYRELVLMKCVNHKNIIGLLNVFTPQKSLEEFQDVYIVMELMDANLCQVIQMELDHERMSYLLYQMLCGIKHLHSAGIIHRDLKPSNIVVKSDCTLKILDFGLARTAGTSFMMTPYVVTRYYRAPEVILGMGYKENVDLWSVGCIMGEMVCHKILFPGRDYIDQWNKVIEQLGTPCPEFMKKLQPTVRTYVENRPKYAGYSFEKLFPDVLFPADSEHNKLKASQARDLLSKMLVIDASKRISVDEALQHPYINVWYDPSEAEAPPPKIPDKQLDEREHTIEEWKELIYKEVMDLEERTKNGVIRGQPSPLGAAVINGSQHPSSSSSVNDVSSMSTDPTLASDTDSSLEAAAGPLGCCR

[10] = target: 3',5'-cyclic-AMP phosphodiesterase 4D (Homo sapiens) (UniProt Q08499); assay: Selectivity interaction (Safety Panel 44tm (Eurofins)) EUB0000162b PDE4D; conditions: at 10 µM
3',5'-cyclic-AMP phosphodiesterase 4D (Homo sapiens), sequence (Q08499 whole entry, the tested form may be a part): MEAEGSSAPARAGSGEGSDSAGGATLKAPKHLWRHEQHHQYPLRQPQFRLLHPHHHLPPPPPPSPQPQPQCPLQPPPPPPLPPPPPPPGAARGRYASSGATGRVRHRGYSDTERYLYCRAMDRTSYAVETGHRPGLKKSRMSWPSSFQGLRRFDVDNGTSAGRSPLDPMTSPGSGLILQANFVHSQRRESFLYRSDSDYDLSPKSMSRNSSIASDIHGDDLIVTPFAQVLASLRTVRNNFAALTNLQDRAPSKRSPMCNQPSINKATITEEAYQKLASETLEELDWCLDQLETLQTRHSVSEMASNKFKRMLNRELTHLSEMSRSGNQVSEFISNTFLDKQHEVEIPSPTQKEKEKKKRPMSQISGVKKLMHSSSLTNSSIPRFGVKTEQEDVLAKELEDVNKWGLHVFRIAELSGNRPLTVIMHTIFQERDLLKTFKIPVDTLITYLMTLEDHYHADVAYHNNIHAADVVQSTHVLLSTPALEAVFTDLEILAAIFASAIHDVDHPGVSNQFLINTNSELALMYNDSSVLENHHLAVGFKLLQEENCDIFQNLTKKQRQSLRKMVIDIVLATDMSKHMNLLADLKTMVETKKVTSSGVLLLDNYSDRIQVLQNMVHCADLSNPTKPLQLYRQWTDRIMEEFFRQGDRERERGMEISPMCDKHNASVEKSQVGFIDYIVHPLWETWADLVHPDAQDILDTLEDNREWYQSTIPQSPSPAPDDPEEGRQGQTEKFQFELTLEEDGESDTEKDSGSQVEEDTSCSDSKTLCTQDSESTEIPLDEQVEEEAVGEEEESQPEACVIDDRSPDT

[11] = target: Epithelial discoidin domain-containing receptor 1 (Homo sapiens) (UniProt Q08345); assay: Selectivity interaction (KinomeScan (DiscoverX)) EUB0000666a DDR1; conditions: at 10 µM
Epithelial discoidin domain-containing receptor 1 (Homo sapiens), sequence (Q08345 whole entry, the tested form may be a part): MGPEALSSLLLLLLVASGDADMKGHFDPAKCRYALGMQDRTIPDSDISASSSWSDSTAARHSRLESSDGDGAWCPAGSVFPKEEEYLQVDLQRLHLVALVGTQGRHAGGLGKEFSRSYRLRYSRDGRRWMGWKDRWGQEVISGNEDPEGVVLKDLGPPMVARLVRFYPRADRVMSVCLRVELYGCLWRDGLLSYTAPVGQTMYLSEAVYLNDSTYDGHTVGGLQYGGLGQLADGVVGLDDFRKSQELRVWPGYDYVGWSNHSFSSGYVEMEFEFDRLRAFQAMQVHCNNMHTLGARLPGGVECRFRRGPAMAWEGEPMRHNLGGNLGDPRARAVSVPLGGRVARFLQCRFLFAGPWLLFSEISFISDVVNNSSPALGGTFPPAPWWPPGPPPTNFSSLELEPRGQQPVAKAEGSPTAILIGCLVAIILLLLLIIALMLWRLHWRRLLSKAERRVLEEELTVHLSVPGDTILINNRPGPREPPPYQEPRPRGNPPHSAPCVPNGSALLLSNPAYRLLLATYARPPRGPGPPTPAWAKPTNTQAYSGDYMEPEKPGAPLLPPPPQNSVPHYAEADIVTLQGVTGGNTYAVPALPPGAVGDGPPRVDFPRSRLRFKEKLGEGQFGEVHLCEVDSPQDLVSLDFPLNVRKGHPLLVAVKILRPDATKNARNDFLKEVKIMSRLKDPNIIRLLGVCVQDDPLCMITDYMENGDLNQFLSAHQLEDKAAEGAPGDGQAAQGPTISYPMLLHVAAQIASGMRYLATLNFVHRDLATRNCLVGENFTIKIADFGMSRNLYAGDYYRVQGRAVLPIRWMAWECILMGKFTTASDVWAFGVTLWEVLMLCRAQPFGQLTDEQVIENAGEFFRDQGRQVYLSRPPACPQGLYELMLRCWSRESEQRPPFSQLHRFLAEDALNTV

[12] = target: T4, Serine/threonine-protein kinase Nek2 (Homo sapiens) (UniProt P51955); assay: Selectivity interaction (KinomeScan (DiscoverX)) EUB0000666a NEK2; conditions: at 10 µM
T4 sequence (whole entry): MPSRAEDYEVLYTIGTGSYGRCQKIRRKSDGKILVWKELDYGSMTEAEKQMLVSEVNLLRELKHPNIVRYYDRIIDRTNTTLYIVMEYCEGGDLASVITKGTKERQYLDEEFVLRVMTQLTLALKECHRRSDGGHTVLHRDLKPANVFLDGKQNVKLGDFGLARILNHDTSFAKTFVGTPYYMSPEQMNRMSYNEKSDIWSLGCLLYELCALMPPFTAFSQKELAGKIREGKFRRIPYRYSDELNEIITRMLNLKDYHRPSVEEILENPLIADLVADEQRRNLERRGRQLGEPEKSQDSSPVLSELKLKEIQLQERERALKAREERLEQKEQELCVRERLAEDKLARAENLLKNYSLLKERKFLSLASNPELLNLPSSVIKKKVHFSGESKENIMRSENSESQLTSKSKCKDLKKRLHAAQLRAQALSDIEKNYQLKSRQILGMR

SMILES: Cc1cc([C@@H](C)Nc2ccccc2C(=O)O)c2nc(N3CCOCC3)cc(=O)n2c1 [AZD-6482]
% of control [1]: 86%

% of inhibition [2]: -1%
% of inhibition [3]: 25.4%
SMILES: CC[C@@H]1[C@H](F)C(=O)N[C@@H]1COc1nccc2cc(C(N)=O)c(OC)cc12 [ZIMLOVISERTIB]

IC50 [4]: > 10 µM
SMILES: CCC(=O)N1CC[C@H](Nc2ncnc3c2CN(c2cnc(OC)c(C(F)(F)F)c2)CC3)C1 [LENIOLISIB]

% of control [5]: 100%
SMILES: CCN(CC)CCCCNc1ncc2cc(-c3cc(OC)cc(OC)c3)c(NC(=O)NC(C)(C)C)nc2n1

% of control ([6]; at 1 µM): 88%
% of control ([6]; at 5 µM): 87%
SMILES: C=CC(=O)Nc1cccc(C(=O)Nc2ccc(Nc3cc(-c4[nH]c(SC)nc4C)ccn3)cc2)c1

SMILES: CCC(=O)N1CCN(c2ccc(-n3c(=O)ccc4cnc5ccc(-c6cnc7ccccc7c6)cc5c43)cc2C(F)(F)F)CC1
% of control [7]: 75%

SMILES: C=CC(=O)Nc1cc(-n2c(=O)ccc3cnc4ccc(-c5ccc(NS(C)(=O)=O)cc5)cc4c32)ccc1C
% of control ([8]; at 1 µM): 82%
% of control ([8]; at 10 µM): 68%

SMILES: O[C@H]1CC[C@H](Nc2ncc3nc(Nc4c(F)cc(F)cc4F)n([C@H]4CCOC4)c3n2)CC1
% of control [9]: 0%

SMILES: CN(C)C(=O)Cn1cc(-c2ccc(-c3cncc4ccccc34)cc2)cn1
% of control [10]: 54%

SMILES: O=C(NOC[C@H](O)CO)c1ccc(F)c(F)c1Nc1ccc(I)cc1F
% of control [11]: 50%
% of control [12]: 70%
